Patent EP3345917A1, “ANTIPROTOZOAL COMPOUNDS” (Bacoba AG, priority 2017, dated 2018)
Non-standard residues stand in square brackets, D forms with d. Residues, ends and D or L forms follow the SMILES beside them. *: point of attachment. NH((S)CH(Me)CH2NMe2) = C[C@@H](CN(C)C)N*; NH(1-CH2NMe2-cBu) = CN(C)CC1(N*)CCC1; Gly(octyl) = CCCCCCCC[C@H](N)C(=O)O; Oxazole4CO(2-Me) = Cc1nc(C(=O)*)co1; X16 = COc1ccc2cc(C(=O)*)c(=O)oc2c1; Hexanoyl = CCCCCC(=O)*; Aib = CC(C)(N)C(=O)O; X14 = O=C(c1cocn1)*; βAla = NCCC(=O)O; NHcPr = C1CC1N*

Key:
[1] = tested on: Trypanosoma brucei rhodesiense (STIB 900 strain); test: Alamar Blue assay against Trypanosoma brucei rhodesiense grown in axenic medium; assay type: cell-based; details: In vitro inhibition, read-out: T.b.rhod.
Experimental: (§1) Tests were done in triplicate.
Trypanosoma brucei rhodesiense (STIB 900) were grown in axenic medium as described by Baltz et al. (1985) The samples were tested using the Alamar Blue assay protocol (Baltz T et al. EMBO J 1985; 4:1273-1277) to determine the 50% inhibitory concentration (IC50). […] Melarsoprol (Arsobal®, Sanofi-Aventis, Switzerland) was used as a reference drug (IC50= 0.03 ± 0.01 µM). Its purity was over 95 %, as was certified by the supplier. The IC50 values were calculated by using Softmax Pro software (Molecular Devices Cooperation, Sunnyvale, CA).

[2] = tested on: Trypanosoma cruzi trypomastigote forms (Tulahuen strain); test: Intracellular Trypanosoma cruzi assay in L6-cells, beta-galactosidase/CPRG readout; assay type: cell-based; details: In vitro inhibition, read-out: T.cruzi.
Experimental: as §1
Trypanosoma cruzi trypomastigote forms (Tulahuen strain C2C4 containing β-galactosidase (Lac Z) gene) were cultured as described by Buckner et al. (Buckner FS et al. Antimicrob Agents Ch1996; 40: 2592-2597) in rat myoblast cells (L6-cells). […] After incubation, the substrate chlorophenyl red β-D-galactopyranoside agent CPRG/Nonident was added to all wells and a color change was developed within 2 to 6 h. The plates were read photometrically at 540 nm (Molecular Devices). Data were evaluated and IC50 values calculated using Softmax Pro software (Molecular Devices).

[3] = tested on: Axenically grown Leishmania donovani amastigotes (strain MHOM/ET/67/L82); test: Axenic Leishmania donovani amastigote resazurin assay; assay type: cell-based; details: In vitro inhibition, read-out: L.don. ax
Experimental: as §1
Axenically grown Leishmania donovani amastigotes (strain MHOM/ET/67/L82) were grown and tests were done as previously described using the resazurin assay (Räz B et al. Acta Tropica 1997, 68:139-147). The plates were developed for 2-4 hours and read on a Spectramax Gemini XS micro plate fluorometer (Molecular Devices Cooperation) using an excitation wavelength of 536 nm and emission wavelength of 588 nm. Fluorescence development was measured and expressed as percentage of the negative control. […] Data were transferred to the graphic programme Softmax Pro (Molecular Devices), with which IC50 values were calculated.

Plasmodium falciparum = test: 3H-hypoxanthine incorporation assay against Plasmodium falciparum; assay type: cell-based; details: In vitro inhibition, read-out: P.falc NF5
Experimental: as §1
IC50 values were calculated by linear interpolation.

[4] = Cytotoxicity assay on L6-cells (Alamar Blue); details: rat, Cytotox L6, Cytotoxicity against rat myoblast cells (L6)

Structure (SMILES) | IC50 [1] [nM] | IC50 [2] [nM] | IC50 [3] [nM] | IC50 (Plasmodium falciparum) [nM] | IC50 at 70 h [4] [nM]
CCCCCCCC[C@H](NC(=O)[C@H](C)NC(=O)CCCCC)C(=O)N[C@H](C(=O)NC(C)(C)C(=O)N[C@@H](CC(C)C)C(=O)N[C@@H](CC(C)C)C(=O)NC(C)(C)C(=O)NC(C)(C)C(=O)NCCC(=O)N[C@@H](C)CN(C)C)[C@@H](C)O [Compound 5605, (2S)-N-[(1S,2R)-1-[(1-{[(1S)-1-{[(1S)-1-{[1-({1-[(2-{[(2S)-1-(dimethylamino)propan-2-yl]carbamoyl}ethyl)carbamoyl]-1-methylethyl}carbamoyl)-1-methylethyl]carbamoyl}-3-methylbutyl]carbamoyl}-3-methylbutyl]carbamoyl}-1-methylethyl)carbamoyl]-2-hydroxypropyl]-2-[(2S)-2-hexanamidopropanamido]decanamide] (Hexanoyl-A[Gly(octyl)]T[Aib]LL[Aib][Aib][βAla]-{NH((S)CH(Me)CH2NMe2)}) | 22.8 | 1840 | 78.6 | 39.3 | 2480
CCCCCCCC[C@H](NC(=O)c1cocn1)C(=O)N[C@H](C(=O)NC(C)(C)C(=O)N[C@@H](CC(C)C)C(=O)N[C@@H](CC(C)C)C(=O)NC(C)(C)C(=O)NC(C)(C)C(=O)NCCC(=O)N[C@@H](C)CN(C)C)[C@@H](C)O [Compound 5639, (2S)-N-[(1S,2R)-1-[(1-{[(1S)-1-{[(1S)-1-{[1-({1-[(2-{[(2S)-1-(dimethylamino)propan-2-yl]carbamoyl}ethyl)carbamoyl]-1-methylethyl}carbamoyl)-1-methylethyl]carbamoyl}-3-methylbutyl]carbamoyl}-3-methylbutyl]carbamoyl}-1-methylethyl)carbamoyl]-2-hydroxypropyl]-2-[(1,3-oxazol-4-yl)formamido]decanamide] (X14-[Gly(octyl)]T[Aib]LL[Aib][Aib][βAla]-{NH((S)CH(Me)CH2NMe2)}) | 22.5 | 5360 | 540 | 244 | 1640
CCCCCCCC[C@H](NC(=O)c1coc(C)n1)C(=O)N[C@H](C(=O)NC(C)(C)C(=O)N[C@@H](CC(C)C)C(=O)N[C@@H](CC(C)C)C(=O)NC(C)(C)C(=O)NC(C)(C)C(=O)NCCC(=O)N[C@@H](C)CN(C)C)[C@@H](C)O [Compound 5640, (2S)-N-[(1S,2R)-1-[(1-{[(1S)-1-{[(1S)-1-{[1-({1-[(2-{[(2S)-1-(dimethylamino)propan-2-yl]carbamoyl}ethyl)carbamoyl]-1-methylethyl}carbamoyl)-1-methylethyl]carbamoyl}-3-methylbutyl]carbamoyl}-3-methylbutyl]carbamoyl}-1-methylethyl)carbamoyl]-2-hydroxypropyl]-2-[(2-methyl-1,3-oxazol-4-yl)formamido]decanamide] ({Oxazole4CO(2-Me)}-[Gly(octyl)]T[Aib]LL[Aib][Aib][βAla]-{NH((S)CH(Me)CH2NMe2)}) | 5.3 | 3740 | 193 | 85.6 | 4440
CCCCCCCC[C@H](NC(=O)[C@@H]1CCCN1C(=O)CCCCC)C(=O)N[C@@H](CC(C)C)C(=O)NC(C)(C)C(=O)N[C@@H](CC(C)C)C(=O)N[C@@H](CC(C)C)C(=O)NC(C)(C)C(=O)NC(C)(C)C(=O)NCCC(=O)NC1CC1 [Compound 5645, (2S)-N-[(1S)-1-[(1-{[(1S)-1-{[(1S)-1-({1-[(1-{[2-(cyclopropylcarbamoyl)ethyl]carbamoyl}-1-methylethyl)carbamoyl]-1-methylethyl}carbamoyl)-3-methylbutyl]carbamoyl}-3-methylbutyl]carbamoyl}-1-methylethyl)carbamoyl]-3-methylbutyl]-2-{[(2S)-1-hexanoylpyrrolidin-2-yl]formamido}decanamide] (Hexanoyl-P[Gly(octyl)]L[Aib]LL[Aib][Aib][βAla]-NHcPr) | 537 | 4240 | 168 | 13.8 | 1230
CCCCCC(=O)N1CCC[C@H]1C(=O)N[C@@H](CCCCNC(C)=O)C(=O)N[C@@H](CC(C)C)C(=O)NC(C)(C)C(=O)N[C@@H](CC(C)C)C(=O)N[C@@H](CC(C)C)C(=O)NC(C)(C)C(=O)NC(C)(C)C(=O)NCCC(=O)N[C@@H](C)CN(C)C [Compound 5766, (2S)-N-[(1S)-1-[(1-{[(1S)-1-{[(1S)-1-{[1-({1-[(2-{[(2S)-1-(dimethylamino)propan-2-yl]carbamoyl}ethyl)carbamoyl]-1-methylethyl}carbamoyl)-1-methylethyl]carbamoyl}-3-methylbutyl]carbamoyl}-3-methylbutyl]carbamoyl}-1-methylethyl)carbamoyl]-3-methylbutyl]-6-acetamido-2-{[(2S)-1-hexanoylpyrrolidin-2-yl]formamido}hexanamide] (Hexanoyl-PK(Ac)L[Aib]LL[Aib][Aib][βAla]-{NH((S)CH(Me)CH2NMe2)}) | 3 | 3780 | 752 | 135 | 4870
CCCCCC(=O)N1CCC[C@H]1C(=O)N[C@@H](CCCCNC(=O)c1cc2ccc(OC)cc2oc1=O)C(=O)N[C@@H](CC(C)C)C(=O)NC(C)(C)C(=O)N[C@@H](CC(C)C)C(=O)N[C@@H](CC(C)C)C(=O)NC(C)(C)C(=O)NC(C)(C)C(=O)NCCC(=O)N[C@@H](C)CN(C)C [Compound 5767, (2S)-N-[(1S)-1-[(1-{[(1S)-1-{[(1S)-1-{[1-({1-[(2-{[(2S)-1-(dimethylamino)propan-2-yl]carbamoyl}ethyl)carbamoyl]-1-methylethyl}carbamoyl)-1-methylethyl]carbamoyl}-3-methylbutyl]carbamoyl}-3-methylbutyl]carbamoyl}-1-methylethyl)carbamoyl]-3-methylbutyl]-2-{[(2S)-1-hexanoylpyrrolidin-2-yl]formamido}-6-[(7-methoxy-2-oxo-2H-chromen-3-yl)formamido]hexanamide] (Hexanoyl-PK(X16)L[Aib]LL[Aib][Aib][βAla]-{NH((S)CH(Me)CH2NMe2)}) | 3.5 | 114 | 17.8 | 21.3 | 508
CCCCCCCC[C@H](NC(=O)[C@@H]1CCCN1C(=O)CCCCC)C(=O)N[C@@H](CC(C)C)C(=O)NC(C)(C)C(=O)N[C@@H](CC(C)C)C(=O)N[C@@H](CC(C)C)C(=O)NC(C)(C)C(=O)NC(C)(C)C(=O)NCCC(=O)NC1(CN(C)C)CCC1 [Compound 5882, (2S)-N-[(1S)-1-[(1-{[(1S)-1-{[(1S)-1-({1-[(1-{[2-({1-[(dimethylamino)methyl]cyclobutyl}carbamoyl)ethyl]carbamoyl}-1-methylethyl)carbamoyl]-1-methylethyl}carbamoyl)-3-methylbutyl]carbamoyl}-3-methylbutyl]carbamoyl}-1-methylethyl)carbamoyl]-3-methylbutyl]-2-{[(2S)-1-hexanoylpyrrolidin-2-yl]formamido}decanamide] (Hexanoyl-P[Gly(octyl)]L[Aib]LL[Aib][Aib][βAla]-{NH(1-CH2NMe2-cBu)}) | 20500 | 42600 | 46800 | 0.9 | 44.1
